Numbered stars: 1 amine (or outer) side, 2 acyl side, 3 side chain; on linkers, the order of the positions; unused ones are H or OH. Bridge positions count the residues as written; N and C are the ends. Square brackets hold non-standard residues; d marks the D form. Peptide text beside a SMILES is read from it. I, II: the chains in the order shown. Actinocin(9to1) = Cc1c2oc3c(C)ccc(C(=O)[*:1])c3nc-2c(C(=O)[*:2])c(N)c1=O; NMeV = CN[C@H](C(=O)O)C(C)C; Sar = CNCC(=O)O
Experiments:
[1] = system: Calf Thymus DNA; assay: Thermal denaturation (ΔTm) of DNA-drug complex; assay type: binding; settings: 0.01 phosphate buffer pH 7.0, 5% Me2SO; in °C (unit assumed)
Protocol: ^a ΔTm = Tm of DNAdrug complex minus Tm of
drugfree DNA; concentration of drug 14.0 nM and that of DNA 70 nM in 0.01
phosphate buffer, pH 7.0, 5 × 10^3 EDTA and 5% Me2 SO.
DNA-binding experiments were carried out in 0.01M phosphate buffer (pH7), containing EDTA (10^-5 M).

[2] = system: purified calf thymus DNA; assay: Covalent and noncovalent (intercalative) binding to calf thymus DNA, [DNA base]/[drug] ratios; settings: 20 mM Tris-HCl pH 7.4, 37° C.
Protocol: ^b Binding to purified calf thymus DNA in 20 mM TrisHCl, ph 7.4 buffe
at 37° C.; A values are molar ratios of DNA to drug based on the
total amount of drug that is bound both intercalatively and covalently to
^c B values are similar ratios assayed on the basis of drugs bound
entirely by covalent bonding to DNA base.

[3] = system: P388/ADR; assay: Inhibition of growth in vitro of P388/ADR cells; assay type: cell-based, mouse; settings: actively growing tumor cells
Protocol: (§1) The analogues are assayed for in vitro growth inhibitory activity against several experimental tumor lines including human and murine leukemia, mouse melanoma, and human lymphoblastic leukemia.

[4] = system: B16; assay: Inhibition of growth in vitro of B16 cells; assay type: cell-based, mouse; settings: actively growing tumor cells
Protocol: as §1

[5] = system: P388/ADR; assay: Antitumor activity against ip implanted P388/ADR in CDF1 mice; assay type: in vivo; design: OD (optimal dose of drugs): unit not given here
Protocol: ^e Optimal dose of drugs.
^ f Median survival time of tumor bearing mice.
^g Percent increase in median life time in days of drugtreated dying
animals vs those of controls; (survivors), number of 60 days
survivors/number of animals tested in the group.
In order to examine a broader spectrum of activity, these optical isomers are tested in two other mouse leukemia cell lines in vivo. One cell line, P388/ADR, is a derivative of the above P388/S made resistant to intercalating agents like […].

[6] = system: DNA synthesis in L1210 cells; assay: Inhibition of DNA synthesis in L1210 ([methyl-14C]thymidine incorporation); assay type: cell-based, Murine; settings: [methyl-14C]thymidine incorporation into DNA; read-out: inhibition of synthesis of nucleic acids in L1210 IC50 DNA
Protocol: (§2) ^a Drug concentration (micromolor) for 50% reduction of incorporation
(§3) of [methyl^14 C]thymidine into DNA^b and [5^3 H] uridine into
(§4) RNA^c from the rate of incorporation of the same radionucleotides in
(§5) nondrug treated L1210 cells growing actively in vitro.
(§6) Inhibition of nucleic acid synthesis in L1210 lymphoid leukemia cells by (±)-EPA and it optical isomers are assayed. […] To achieve this, a digestion of the nucleic acid pellet with DNase-free RNase enzyme, prior to final pelleting of the DNA precipitate is made to ensure that no more than ±8% contamination from […] into DNA takes place, and for this the necessary correction is made in the data reported in Table V.

[7] = system: RNA synthesis in L1210 cells; assay: Inhibition of RNA synthesis in L1210 ([5-3H]uridine incorporation); assay type: cell-based, Murine; settings: [5-3H]uridine incorporation into RNA; read-out: inhibition of synthesis of nucleic acids in L1210 IC50 RNA
Protocol: as §2, §3, §4, §5, §6

[8] = system: L1210 cells; assay: Inhibition of growth of L1210 cells in culture; assay type: cell-based, Murine
Protocol: as §1

[9] = system: leukemia L1210; assay: Activity in mice bearing leukemia L1210; assay type: in vivo; settings: L1210 ip in CDF1 mouse
From the text: ^e OD, optimal dose of drugs in milligrams/killograms per injection,
administered ip on days 1, 5, and 9, following ip inoculation with
^f % ILS, percent increase in median life span in days, of the
tumorbearing drugtreated dying animals when compared with similar tumor
bearing mice but not treated with drugs. (surv), number of over 60 days
survivors/number of animals tested.

[10] = system: B16 melanoma; assay: B16 melanoma implanted sc, drug iv (sc-iv) in BDF1 mice; assay type: in vivo
Protocol: (§7) Subcutaneously implanted B16 melanoma in BDF1 mice is a slow growing tumor, but its rate of growth becomes faster when it is implanted ip. […] This is not consistent with data in other tumors; however, in this connection it should be pointed out that the combined effects of drugs (or enantiomers in this case) can be manifested in several ways, i.e., they can be synergistic, additive, or subtractive.
(§8) 0.2 ml of brei (tumor weight/Hank's balanced salt solution, (1:5) of B16
(§9) implanted sc or ip into groups of nine BDF1 mice on day 0. Drugs
(§10) administered iv on day 1 or ip on days 1, 5, and 9, following tumor
(§11) administered ip on days 1, 5, and 9. OD, optimal dose in
(§12) milligrams/milliliter of vehicle, and administered iv or ip in 0.1 mL of
(§13) vehicle (5% v/v Me2 SOsaline). MST, median survival times in days of
(§14) tumor bearing and nondrug treated (control) or drugtreated mice. % ILS,
(§15) percent increase in life span of drug treated groups over the control
(§16) group of test animals, excluding survivors. (surv), number of sixty day
(§17) survivors/number of mice treated with drug.

[11] = system: B16 melanoma; assay: B16 melanoma implanted ip, drug ip (ip-ip) in BDF1 mice; assay type: in vivo
Protocol: as §7, §8, §9, §10, §11, §12, §13, §14, §15, §16, §17

[12] = system: C26 colon carcinoma; assay: C26 colon carcinoma implanted in CDF1 mice, drug ip; assay type: in vivo
Protocol: implantation. Primary colon C26 carcinoma (tripan blue excluding, 2.5
× 10^5 cells/mouse) implanted in CDF1 mice on day 0; drug
as §11, §12, §13, §14, §15, §16, §17

[13] = system: CCRF-CEM; assay: In vitro growth inhibition of CCRF-CEM human lymphoblastic leukemia cells; assay type: cell-based; settings: purer (90%) form of isomers
Protocol: as §1

[14] = cited from earlier work
[15] = ip days 1, 5, 9, at optimal dose
[16] = B16 sc implanted, drug iv day 1
[17] = B16 ip implanted, drug ip days 1, 5, 9

SMILES: Cc1c2oc3c(C)ccc(C(=O)N[C@@H]4C(=O)N[C@H](C(C)C)C(=O)N5CCC[C@H]5C(=O)N(C)CC(=O)N(C)[C@@H](C(C)C)C(=O)O[C@@H]4C)c3nc-2c(C(=O)N[C@@H]2C(=O)N[C@H](C(C)C)C(=O)N3CCC[C@H]3C(=O)N(C)CC(=O)N(C)[C@@H](C(C)C)C(=O)O[C@@H]2C)c(N)c1=O [1b(AMD), Actinomycin D] (I: T[dV]P[Sar][NMeV] / II: T[dV]P[Sar][NMeV]; ester I:1-I:C, II:1-II:C; linker I:N-II:N via Actinocin(9to1))
- Tm (ΔTm = Tm of DNA-drug complex minus Tm of drug-free DNA) [1]: 7.1 ± 0.15
- [DNA base]/[drug] A: molar ratio of DNA to drug, total drug bound intercalatively and covalently [2]: 26 ± 2
- inhibition of growth ID50 P388/ADR [3]: 2500 ± 250 nM
- inhibition of growth ID50 B16 [4]: 3.0 ± 1.0 nM
- % ILS (percent increase in median life time vs controls) ([5]; ip qd 1-9, at optimal dose): 33%
- (surv) number of 60 days survivors/number of animals tested ([5]; ip qd 1-9, at optimal dose): 0/10
- MST (median survival time) ([5]; ip qd 1-9, at optimal dose): 12 days
- OD (optimal dose of drugs) ([5]; treated ip qd 1-9): 0.075
- IC50 [6]: 380 ± 28 nM
- IC50 [7]: 19 ± 6 nM
- inhibition of growth of L1210 cells in culture; ID50 [8]: 60.1 ± 9.8 nM
- OD (optimal dose) ([9]; ip days 1, 5, 9): 0.025 milligrams/killograms per inje
- % ILS (percent increase in median life span) [9, 15]: 55%
- (surv) number of over 60 days survivors/number of animals tested [9, 15]: 0/9
- % ILS [10, 16]: 36%
- (surv) sixty day survivors/number of mice treated [10, 16]: 0/9
- MST (median survival time) [10, 16]: 45.0 days
- OD (optimal dose) ([10]; B16 sc implanted, drug iv day 1, 0.1 mL vehicle): 0.9 milligrams/milliliter of vehic
- activity against sc implanted B16 tumor, in words ([10]; iv administered): only marginally active
- % ILS [11, 17]: 52%
- (surv) sixty day survivors/number of mice treated [11, 17]: 0/9
- MST (median survival time) [11, 17]: 29.0 days
- OD (optimal dose) ([11]; B16 ip implanted, drug ip days 1, 5, 9, 0.1 mL vehicle): 0.25 milligrams/milliliter of vehic
- activity against ip implanted B16 tumor, in words ([11]; ip administered): only moderately active
- % ILS ([12]; drug ip days 1, 5, 9): 52%
- (surv) sixty day survivors/number of mice treated ([12]; drug ip days 1, 5, 9): 0/10
- MST ([12]; drug ip days 1, 5, 9): 33.5 days
- OD (optimal dose) ([12]; drug ip days 1, 5, 9, 0.1 mL vehicle): 0.30 milligrams/milliliter of vehic
- 50% growth inhibitory dose (ID50) [13]: 12.5 nM
- metabolism in vivo [14]: not metabolized in vivo
